According to the supplement of paper PMC10307832:

Key:
Assay in all cases: relative viability (nuclei count vs DMSO), 5 days (fraction); higher = more cells survive
BMX-IN-1 + Vorinostat = compound: C=CC(=O)Nc1cc(-n2c(=O)ccc3cnc4ccc(-c5ccc(NS(C)(=O)=O)cc5)cc4c32)ccc1C [BMX-IN-1] + O=C(CCCCCCC(=O)Nc1ccccc1)NO [Vorinostat] (partner 1 µM)
Method in brief: (§1)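 Each reported value is a median over duplicate plates. It expresses relative viability: treated-well nuclei count divided by vehicle-well nuclei count. Lung cancer cell lines in 1536-well plates were dosed by pin tool a day after seeding, alone with one drug or with a fixed anchor-drug dose plus five library-drug doses (not always all listed) in √10 steps, and nuclei were counted after 5 days.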

Ibrutinib + Navitoclax = compound: C=CC(=O)N1CCC[C@@H](n2nc(-c3ccc(Oc4ccccc4)cc3)c3c(N)ncnc32)C1 [Ibrutinib] + CC1(C)CCC(c2ccc(Cl)cc2)=C(CN2CCN(c3ccc(C(=O)NS(=O)(=O)c4ccc(N[C@H](CCN5CCOCC5)CSc5ccccc5)c(S(=O)(=O)C(F)(F)F)c4)cc3)CC2)C1 [Navitoclax] (partner 0.5 µM)
Method in brief: as §1

Ibrutinib + Palbociclib = compound: C=CC(=O)N1CCC[C@@H](n2nc(-c3ccc(Oc4ccccc4)cc3)c3c(N)ncnc32)C1 [Ibrutinib] + CC(=O)c1c(C)c2cnc(Nc3ccc(N4CCNCC4)cn3)nc2n(C2CCCC2)c1=O [Palbociclib] (partner 0.5 µM)
Method in brief: as §1

Ibrutinib + Foretinib = compound: C=CC(=O)N1CCC[C@@H](n2nc(-c3ccc(Oc4ccccc4)cc3)c3c(N)ncnc32)C1 [Ibrutinib] + COc1cc2c(Oc3ccc(NC(=O)C4(C(=O)Nc5ccc(F)cc5)CC4)cc3F)ccnc2cc1OCCCN1CCOCC1 [Foretinib] (partner 0.25 µM)
Method in brief: as §1

How did the relative viability (BMX-IN-1 + Vorinostat; first compound 0.02 µM) turn out when SK-MES-1 was run?
Its relative viability is 1.1.

And the relative viability (BMX-IN-1 + Vorinostat; first compound 0.2 µM)?
The relative viability was 1.18.

What about the relative viability (BMX-IN-1 + Vorinostat; first compound 0.6325 µM) of the same cell line?
Its relative viability is 1.45.

What about the relative viability (BMX-IN-1 + Vorinostat; first compound 2 µM) of the same cell line?
Its relative viability is 0.717.

What about the relative viability (Ibrutinib + Navitoclax; first compound 0.005 µM) of the same cell line?
Its relative viability is 1.19.

And the relative viability (Ibrutinib + Navitoclax; first compound 0.01581 µM)?
Its relative viability is 1.2.

What about the relative viability (Ibrutinib + Navitoclax; first compound 0.05 µM) of the same cell line?
The relative viability was 1.34.

What about the relative viability (Ibrutinib + Navitoclax; first compound 0.1581 µM) of the same cell line?
The relative viability was 1.32.

What about the relative viability (Ibrutinib + Navitoclax; first compound 0.5 µM) of the same cell line?
The relative viability was 0.723.

What about the relative viability (Ibrutinib + Palbociclib; first compound 0.005 µM) of the same cell line?
Its relative viability is 0.337.

And the relative viability (Ibrutinib + Palbociclib; first compound 0.01581 µM)?
The relative viability was 0.324.

What about the relative viability (Ibrutinib + Palbociclib; first compound 0.05 µM) of the same cell line?
Its relative viability is 0.382.

What about the relative viability (Ibrutinib + Palbociclib; first compound 0.1581 µM) of the same cell line?
Its relative viability is 0.366.

What about the relative viability (Ibrutinib + Palbociclib; first compound 0.5 µM) of the same cell line?
Its relative viability is 0.245.

What about the relative viability (Ibrutinib + Foretinib; first compound 0.005 µM) of the same cell line?
The relative viability was 1.03.

And the relative viability (Ibrutinib + Foretinib; first compound 0.01581 µM)?
Its relative viability is 0.884.

And the relative viability (Ibrutinib + Foretinib; first compound 0.05 µM)?
The relative viability was 0.841.

What about the relative viability (Ibrutinib + Foretinib; first compound 0.1581 µM) of the same cell line?
The relative viability was 0.989.

What about the relative viability (Ibrutinib + Foretinib; first compound 0.5 µM) of the same cell line?
Its relative viability is 0.582.
